Measured values reported in patent US11634393B2, “Substituted tolyl fungicides” (FMC CORPORATION, priority 2018, dated 2023).

Tests used:
[1] = system: Puccinia recondita f. sp. tritici; assay: Test B: wheat leaf rust, spray on wheat seedlings, disease control rating; type: in vivo; settings: Rate 10 ppm, 100 = 100% disease control, 0 = no disease control relative to the controls; for pest or weed control at 10 ppm: Puccinia recondita, 192 h
Excerpt: (§1) General protocol for preparing test suspensions for Tests A-F: the test compounds were first dissolved in acetone in an amount equal to 3% of the final volume and then suspended at the desired concentration (in ppm) in acetone and purified water (50/50 mix by volume) containing 250 ppm of the surfactant PEG400 (polyhydric alcohol esters). The resulting test suspensions were then used in Tests A-F.
The test solution was sprayed to the point of run-off on wheat seedlings. The following day the seedlings were inoculated with a spore suspension of Puccinia recondita f. sp. tritici (the causal agent of wheat leaf rust) and incubated in a saturated atmosphere at 20° C. for 24 h, and then moved to a growth chamber at 20° C. for 7 days, after which time disease ratings were made.
(§2) A rating of 100 indicates 100% disease control and a rating of 0 indicates no disease control (relative to the controls). A dash (-) indicates the compound was not tested.

Phakopsora pachyrhizi = assay: Test D: Asian soybean rust, spray on soybean seedlings, disease control rating; type: in vivo; settings: Rate 10 ppm, 100 = 100% disease control, 0 = no disease control relative to the controls; for pest or weed control at 10 ppm: Phakopsora pachyrhizi, 216 h
Excerpt: as §1
The test solution was sprayed to the point of run-off on soybean seedlings. The following day the seedlings were inoculated with a spore suspension of Phakopsora pachyrhizi (the causal agent of Asian soybean rust) and incubated in a saturated atmosphere at 22° C. for 24 h and then moved to a growth chamber at 22° C. for 8 days, after which time visual disease ratings were made.
as §2

Row | SMILES | pest or weed control at 10 ppm [1] [%] | pest or weed control at 10 ppm (Phakopsora pachyrhizi) [%] | Test B disease control rating [1] [%] | Test D disease control rating (Phakopsora pachyrhizi) [%]
1 | COC(=O)NCc1cc(-c2ccn(-c3c(F)cc(N)cc3F)n2)ccc1C [Compound 5, methyl N-[[5-[1-(4-amino-2,6-difluorophenyl)-1H-pyrazol-3-yl]-2-methylphenyl]methyl]carbamate] | 0 | 0 |  | 
2 | COC(=O)NCc1cc(-c2ccn(-c3c(F)cc(Br)cc3F)n2)ccc1C [Compound 7, methyl N-[[5-[1-(4-bromo-2,6-difluorophenyl)-1H-pyrazol-3-yl]-2-methylphenyl]methyl]carbamate] | 100 | 100 |  | 
3 | COC(=O)NCc1cc(-c2ccn(-c3c(F)cc(I)cc3F)n2)ccc1C [Compound 8, methyl N-[[5-[1-(2,6-difluoro-4-iodophenyl)-1H-pyrazol-3-yl]-2-methylphenyl]methyl]carbamate] | 100 | 100 |  | 
4 | COC(=O)NCc1cc(-c2ccn(-c3c(F)cc(OCC4CC4)cc3F)n2)ccc1C [Compound 9] |  |  | 99 | 99
5 | COC(=O)NCc1cc(-c2ccn(-c3c(F)cc(O)cc3F)n2)ccc1C [Compound 10, methyl N-[[5-[1-(2,6-difluoro-4-hydroxyphenyl)-1H-pyrazol-3-yl]-2-methylphenyl]methyl]carbamate] | 0 | 0 |  | 
6 | COC(=O)NCc1cc(-c2ccn(-c3c(F)cc(OCC(C)C)cc3F)n2)ccc1C [Compound 12] |  |  | 98 | 100
7 | COC(=O)NCc1cc(-c2ccn(-c3c(F)cc(OC(C)C)cc3F)n2)ccc1C [Compound 14, methyl N-[[5-[1-[2,6-difluoro-4-(1-methylethoxy)phenyl]-1H-pyrazol-3-yl]-2-methylphenyl]methyl]carbamate] | 100 | 100 |  | 
8 | COC(=O)NCc1cc(-c2ccn(-c3c(F)cc(F)cc3F)n2)ccc1C [Compound 16] | 99 | 100 |  | 
9 | COC(=O)NCc1cc(-c2ccn(-c3c(F)cc(OC(=O)OC)cc3F)n2)ccc1C [Compound 17] |  |  | 0 | 0
10 | COC(=O)NCc1cc(-c2ccn(-c3c(F)cc(OC(C)=O)cc3F)n2)ccc1C [Compound 18] |  |  | 41 | 65
11 | COC(=O)NCc1cc(-c2ccn(-c3c(F)cc(F)cc3SC)n2)ccc1C [Compound 19] | 0 | 81 |  | 
12 | COC(=O)NCc1cc(-c2ccn(-c3c(SC)cc(F)cc3SC)n2)ccc1C [Compound 20] | 0 | 0 |  | 
13 | COC(=O)NCc1cc(-c2ccn(-c3c(F)cc(OC4COC4)cc3F)n2)ccc1C [Compound 21] |  |  | 55 | 100
14 | COC(=O)NCc1cc(-c2ccn(-c3c(F)cc(OCC(F)(F)F)cc3F)n2)ccc1C [Compound 22] | 99 | 100 |  | 
15 | COC(=O)NCc1cc(-c2ccn(-c3c(F)cc(OCC4CCCO4)cc3F)n2)ccc1C (stereo not shown) [Compound 23] |  |  | 68 | 25
16 | COC(=O)NCc1cc(-c2ccn(-c3c(F)cc(NC(=O)OC)cc3F)n2)ccc1C [Compound 24] |  |  | 0 | 75
17 | COC(=O)NCc1cc(-c2ccn(-c3c(F)cc(NC(C)=O)cc3F)n2)ccc1C [Compound 25] |  |  | 8 | 81
18 | COC(=O)NCc1cc(-c2ccn(-c3c(F)cc(I)cc3SC)n2)ccc1C [Compound 26] | 73 | 87 |  | 
19 | COC(=O)NCc1cc(-c2ccn(-c3c(F)cc(SC)cc3F)n2)ccc1C [Compound 27] | 99 | 100 |  | 
20 | COC(=O)NCc1cc(-c2ccn(-c3c(F)cc(SC)cc3SC)n2)ccc1C [Compound 28] | 0 | 100 |  | 
21 | COC(=O)NCc1cc(-c2ccn(-c3c(F)cc(OC(F)(F)C(F)F)cc3F)n2)ccc1C [Compound 29] |  |  | 100 | 100
22 | COC(=O)NCc1cc(-c2ccn(-c3c(F)cc(OCC4CCC4)cc3F)n2)ccc1C [Compound 31] |  |  | 91 | 0
23 | COC(=O)NCc1cc(-c2ccn(-c3c(F)cc(OCC4COC4)cc3F)n2)ccc1C [Compound 32] |  |  | 0 | 77
24 | COC(=O)NCc1cc(-c2ccn(-c3c(C)cc([N+](=O)[O-])cc3C)n2)ccc1C [Compound 35] | 0 | 0 |  | 

Row | SMILES | pest or weed control at 10 ppm [1] [%] | pest or weed control at 10 ppm (Phakopsora pachyrhizi) [%] | Test B disease control rating [1] [%] | Test D disease control rating (Phakopsora pachyrhizi) [%]
25 | CNc1cc(F)c(-n2ccc(-c3ccc(C)c(CNC(=O)OC)c3)n2)c(F)c1 [Compound 36] | 68 | 100 |  | 
26 | COC(=O)NCc1cc(-c2ccn(-c3c(F)cc([N+](=O)[O-])cc3Cl)n2)ccc1C [Compound 37] | 26 | 0 |  | 
27 | COC(=O)NCc1cc(-c2ccn(-c3c(C)cc(N)cc3C)n2)ccc1C [Compound 38] | 0 | 0 |  | 
28 | COC(=O)NCc1cc(-c2ccn(-c3c(F)cc(N)cc3Cl)n2)ccc1C [Compound 39] | 0 | 0 |  | 
29 | COC(=O)NCc1cc(-c2ccn(-c3c(C)cc(OC)cc3C)n2)ccc1C [Compound 40] | 0 | 99 |  | 
30 | COC(=O)NCc1cc(-c2ccn(-c3c(F)cc(C4CC4)cc3F)n2)ccc1C [Compound 41, methyl N-[[5-[1-(4-cyclopropyl-2,6-difluorophenyl)-1H-pyrazol-3-yl]-2-methylphenyl]methyl]carbamate] | 100 | 100 |  | 
31 | COC(=O)NCc1cc(-c2ccn(-c3c(F)cc(SC(C)(C)C)cc3F)n2)ccc1C [Compound 42, methyl N-[[5-[1-[4-[(1,1-dimethylethyl)thio]-2,6-difluorophenyl]-1H-pyrazol-3-yl]-2-methylphenyl]methyl]carbamate] | 100 | 73 |  | 
32 | COC(=O)NCc1cc(-c2ccn(-c3c(F)cc(SC(F)F)cc3F)n2)ccc1C [Compound 43, methyl N-[[5-[1-[4-[(difluoromethyl)thio]-2,6-difluorophenyl]-1H-pyrazol-3-yl]-2-methylphenyl]methyl]carbamate] | 100 | 100 |  | 
33 | COC(=O)NCc1cc(-c2ccn(-c3c(Cl)cccc3Cl)n2)ccc1C [Compound 44] | 68 | 100 |  | 
34 | COC(=O)NCc1cc(-c2ccn(-c3c(F)cccc3I)n2)ccc1C [Compound 45] | 0 | 100 |  | 
35 | COC(=O)NCc1cc(-c2ccn(-c3c(F)cccc3Br)n2)ccc1C [Compound 46] | 68 | 100 |  | 
36 | COC(=O)NCc1cc(-c2ccn(-c3c(F)cccc3Cl)n2)ccc1C [Compound 47] | 74 | 100 |  | 
37 | COC(=O)NCc1cc(-c2ccn(-c3c(C)cc(Br)cc3C)n2)ccc1C [Compound 48] | 68 | 99 |  | 
38 | COC(=O)NCc1cc(-c2ccn(-c3c(C)cc(Cl)cc3C)n2)ccc1C [Compound 49] | 68 | 99 |  | 
39 | COC(=O)NCc1cc(-c2ccn(-c3c(F)cc(Br)cc3Cl)n2)ccc1C [Compound 50] | 100 | 100 |  | 
40 | COC(=O)NCc1cc(-c2ccn(-c3c(F)cc(Cl)cc3Cl)n2)ccc1C [Compound 51] | 100 | 100 |  | 
41 | COC(=O)NCc1cc(-c2ccn(-c3c(Br)cccc3I)n2)ccc1C [Compound 52] | 0 | 99 |  | 
42 | C#Cc1cc(F)c(-n2ccc(-c3ccc(C)c(CNC(=O)OC)c3)n2)c(F)c1 [Compound 53, methyl N-[[5-[1-(4-ethynyl-2,6-difluorophenyl)-1H-pyrazol-3-yl]-2-methylphenyl]methyl]carbamate] | 100 | 100 |  | 
43 | COC(=O)NCc1cc(-c2ccn(-c3c(Cl)cc([N+](=O)[O-])cc3Cl)n2)ccc1C [Compound 54] | 0 | 0 |  | 
44 | COC(=O)NCc1cc(-c2ccn(-c3c(Cl)cc(N)cc3Cl)n2)ccc1C [Compound 55] | 0 | 0 |  | 
45 | COC(=O)NCc1cc(-c2ccn(-c3c(Cl)cc(Br)cc3Cl)n2)ccc1C [Compound 56] | 80 | 100 |  | 
46 | COC(=O)NCc1cc(-c2ccn(-c3c(Cl)cc(Cl)cc3Cl)n2)ccc1C [Compound 57] | 74 | 100 |  | 
47 | COC(=O)NCc1cc(-c2ccn(-c3c(Br)cccc3Br)n2)ccc1C [Compound 58] | 68 | 100 |  | 
